The values that follow come from patent US10602743B2, “Method of inducing drought/salt tolerance using Bacillus megaterium” (Marrone Bio Innovations, Inc., priority 2012, dated 2020).

For the test, the system named is Bacillus megaterium strain H491. Kind of test: Chemical sensitivity, Biolog Phenotypic Microarray. The format is cell-based.
Setting [1] is: Biolog Phenotypic Microarray, 25° C.

Where two headings read alike, the source gives them in different places.

As for `CC(C)NCC(O)COc1cccc2ccccc12` (racemic) [D,L-Propanolol], the “H491 susceptible to compound” value under setting [1] is on record as “susceptible”.

For the compound `O=C(O)CCCCC1CCSS1` (racemic) [D,L-Thioctic acid], the “H491 susceptible to compound” value under setting [1] is on record as “susceptible”. As for `O.c1cnc2c(c1)ccc1cccnc12` [1,10-Phenanthroline Monohydrate], the “H491 susceptible to compound” value under setting [1] is listed as “susceptible”. The same measure, in the same setting: with `On1ccccc1=S` [1-Hydroxypyridine-2-thione] the entry was “susceptible”; with `c1ccc(-c2ccccn2)nc1` [2,2′-Dipyridyl], “susceptible”; with `CC(C)c1nc2nc(N)nc(N)c2nc1C(C)C` [2,4-Diamino-6,7-diisopropylpteridine], “susceptible”. For the compound `O=[N+]([O-])c1ccc(O)c([N+](=O)[O-])c1` [2,4-Dintrophenol], the “H491 susceptible to compound” value under setting [1] was “susceptible”. Consider `O=[N+]([O-])c1ncc[nH]1` [2-Nitroimidazole], for which the “H491 susceptible to compound” value under setting [1] was “susceptible”. `Oc1ccccc1-c1ccccc1` [2-Phenylphenol]: the “H491 susceptible to compound” value under setting [1] is given as “susceptible”. For the compound `O=C(O)c1cc([N+](=O)[O-])cc([N+](=O)[O-])c1` [3,5-Dinitrobenzoic acid], the “H491 susceptible to compound” value under setting [1] was “susceptible”. For the compound `Nc1nc[nH]n1` [3-Amino-1,2,4-triazole], the “H491 susceptible to compound” value under setting [1] was “susceptible”. `Cc1cc(O)cc(C)c1Cl` [4-Chloro-3,5-dimethyl-phenol]: the “H491 susceptible to compound” value under setting [1] is on record as “susceptible”.

As to `O=c1cc(O)c2ccccc2o1` [4-Hydroxycoumarin], under setting [1], the “H491 susceptible to compound” value is reported as “susceptible”.

In the case of `Cc1ccc2c(Cl)cc(Cl)c(O)c2n1` [5,7-Dichloro-8-hydroxyquinaldine], the “H491 susceptible to compound” value under setting [1] is reported as “susceptible”. `Oc1c(Cl)cc(Cl)c2cccnc12` [5,7-Dichloro-8-hydroxyquinoline]: the “H491 susceptible to compound” value under setting [1] is “susceptible”. Still for that read-out and setting: with `Oc1c(I)cc(Cl)c2cccnc12` [5-Chloro-7-iodo-8-hydroxy-quinoline] the entry was “susceptible”; with `C[C@H]1O[C@@H](n2cc(F)c(=O)[nH]c2=O)[C@H](O)[C@@H]1O` [5-Fluoro-5′-deoxyuridine], “susceptible”; with `O=C(O)c1[nH]c(=O)[nH]c(=O)c1F` [5-Fluoroorotic acid], “susceptible”. On the same count and under the same terms, with `O=c1[nH]cc(F)c(=O)[nH]1` [5-Fluorouracil] the entry was “susceptible”; with `NC(=O)NN=Cc1ccc([N+](=O)[O-])o1` [5-Nitro-2-furaldehyde semicarbazone], “susceptible”. For the compound `O.Sc1ncnc2nc[nH]c12` [6-Mercaptopurine monohydrate], the “H491 susceptible to compound” value under setting [1] is “susceptible”. For `Oc1cccc2cccnc12` [8-Hydroxyquinoline], the “H491 susceptible to compound” value is listed as “susceptible”. Regarding `CCCCC(CC)CNC(=N)NC(=N)NCCCCCCNC(=N)NC(=N)NCC(CC)CCCC` (stereo not shown) [Alexidine], under setting [1], the “H491 susceptible to compound” value is “susceptible”. With `CN(C)CCC=C1c2ccccc2CCc2ccccc21` [Amitriptyline], the “H491 susceptible to compound” value under setting [1] is “susceptible”. The same measure, in the same setting: with `CC1(C)S[C@@H]2[C@H](NC(=O)[C@H](N)c3ccc(O)cc3)C(=O)N2[C@H]1C(=O)O` [Amoxicillin] the entry was “susceptible”; with `[Cl][Sb]([Cl])[Cl]` [Antimony (III) chloride], “susceptible”.

Consider `CN[C@@H]1[C@@H](O[C@H]2O[C@H](CO)[C@@H](N)[C@H](O)[C@H]2O)OC2C[C@@H](N)[C@@H](O[C@H]3[C@H](O)[C@@H](O)[C@H](N)C[C@@H]3N)OC2[C@@H]1O` (stereo partly shown) [Apramycin], for which the “H491 susceptible to compound” value under setting [1] is on record as “susceptible”.

Take `CN1[C@@H]2CC[C@H]1C[C@@H](OC(=O)C(CO)c1ccccc1)C2` (stereo partly shown) [Atropine]: the “H491 susceptible to compound” value is “susceptible”.
